The values below come from US9670261B2 (Sanofi, priority 2012, dated 2017).

One data set has as its system female NMRI-mice. The data set is described as follows: Automated assessment of 22-hours feed intake in mice. It counts as in vivo. The settings on record: 0.1 mg/kg s.c. As for the experimental part:
Female NMRI-mice of a body weight between 20 and 30 g were used. Mice were adapted to housing conditions for at least one week and for at least one day single-caged in the assessment equipment, when basal data were recorded simultaneously. On the study day, test product was administered subcutaneously close to the lights-off phase (12 h lights off) and assessment of feed consumption was directly started afterwards. Assessment included continued monitoring over 22 hours, while data are processed as mean over every 30 min. Repetition of this procedure over several days was possible. Restriction of assessment to 22 hours was for practical reasons to allow for reweighing of animals, refilling of feed and water and drug administration between procedures. Results could be assessed as cumulated data over 22 hours or differentiated to 30 min intervals. […] Statistical analyses were performed with Everstat 6.0 by two-way ANOVA on repeated measures and Dunnett's post-hoc analyses. Differences were considered statistically significant at the p<0.05 level. […] Lights-off phase (dark phase) started 4 hours later. […].

A further data set addresses T1, human GIP receptor (Homo sapiens, UniProt P48546).
T1 construct: expressed in transfected cells
T1 sequence (P48546 22-466): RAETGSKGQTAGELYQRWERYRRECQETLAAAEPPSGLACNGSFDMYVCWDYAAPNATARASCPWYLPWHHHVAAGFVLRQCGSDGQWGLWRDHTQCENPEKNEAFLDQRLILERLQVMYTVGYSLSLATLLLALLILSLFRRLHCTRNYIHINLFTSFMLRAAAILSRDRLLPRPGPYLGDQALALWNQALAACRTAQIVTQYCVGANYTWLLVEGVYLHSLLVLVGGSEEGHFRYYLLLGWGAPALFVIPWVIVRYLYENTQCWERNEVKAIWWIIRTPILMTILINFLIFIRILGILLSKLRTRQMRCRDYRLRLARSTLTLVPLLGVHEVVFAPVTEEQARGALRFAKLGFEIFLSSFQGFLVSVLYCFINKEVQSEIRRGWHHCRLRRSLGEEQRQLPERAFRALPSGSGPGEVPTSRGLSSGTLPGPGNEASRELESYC
The data set is described as follows: cAMP response (HTRF) of HEK-293 cells stably expressing human GIP receptor. It counts as cell-based. Conditions: Table 7; cAMP formation; read-out: EC50 hGIP R. The procedure, abridged:
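cAMP accumulation was read by homogeneous time-resolved fluorescence after 30 min compound exposure at room temperature. Stable receptor-expressing HEK-293 cells, 400000 cells/ml, were used in HEPES-buffered HBSS containing 0.1% BSA and the phosphodiesterase inhibitor IBMX (2 mM).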

Data set [1] concerns female leptin-receptor deficient diabetic db/db mice. In words: Blood glucose and HbA1c in leptin-receptor deficient diabetic db/db mice (method 3). Type of data set: in vivo. The settings on record: single 100 μg/kg s.c., fed db/db mice. An excerpt: Female BKS.Cg-m+/+Leprdb/J (db/db) and BKS.Cg-m+/+Leprdb/+(lean control) mice were obtained from Charles River Laboratories, Germany, at an age of 9-10 weeks. The animals were housed in groups in a specific pathogen-free barrier facility on a 12-h light/dark cycle with free access to water and rodent-standard chow. After 1 week of acclimatization, blood samples were drawn from the tail without anaesthesia and blood glucose (method: d-glucose hexokinase, hemolysate, AU640 Beckman Coulter) and HbA1c level (method: hemolysate, Cobas6000 c501, Roche Diagnostics, Germany) were determined. […] The volume of administration was 5 mL/kg. The animals had access to water and chow during the experiment, food consumption was determined at all time points of blood sampling. […] Blood sampling was performed by tail incision without anaesthesia. […] At the end of the study, blood samples (tail, no anaesthesia) were analyzed for glucose and HbA1c. […] Statistical analyses were performed with Everstat 6.0 by repeated measures two-way ANOVA and Dunnett's post-hoc analyses. Differences versus vehicle-treated db/db control mice were considered statistically significant at the p<0.05 level. […] At predefined time points, more blood samples were taken to measure blood glucose and generate the blood glucose profile over 24 h. […] Blood glucose and HbA1c were determined before start of treatment and at the end of the study after 4 weeks of treatment. […] Before treatment started, no significant differences in blood glucose levels could be detected between db/db groups, only the lean control animals had significant lower glucose levels. During the 4 weeks of treatment, glucose levels increased in the vehicle-treated db/db control group, indicating a worsening of the diabetic situation.

The nature of a further data set: in vivo. The settings on record: mouse, sc, 1 mg/kg.

Description for in vivo: Mice were dosed 1 mg/kg subcutaneously (s.c.). The mice were sacrified and blood samples were collected after 0.25, 0.5, 1, 2, 4, 8, 16 and 24 hours post application. Plasma samples were analyzed after protein precipitation via liquid chromatography mass spectrometry (LC/MS). PK parameters and half-life were calculated using WinonLin Version 5.2.1 (non-compartment model).

On to `CCCCCCCCCCCCCCCC(=O)N[C@@H](CCC(=O)NCCCC[C@H](NC(=O)[C@H](CCC(N)=O)NC(=O)[C@@H](NC(=O)[C@H](CO)NC(=O)[C@H](CC(C)C)NC(=O)[C@H](CC(=O)O)NC(=O)[C@H](CO)NC(=O)[C@@H](NC(=O)[C@H](Cc1ccccc1)NC(=O)[C@@H](NC(=O)CNC(=O)[C@H](CCC(=O)O)NC(=O)C(C)(C)NC(=O)[C@@H](N)Cc1ccc(O)cc1)[C@@H](C)O)[C@@H](C)O)[C@@H](C)CC)C(=O)N[C@@H](CC(=O)O)C(=O)N[C@@H](CCCCN)C(=O)N[C@@H](CCCNC(=N)N)C(=O)N[C@@H](C)C(=O)N[C@@H](C)C(=O)N[C@@H](CCC(N)=O)C(=O)N[C@@H](CC(=O)O)C(=O)N[C@@H](Cc1ccccc1)C(=O)N[C@H](C(=O)N[C@@H](CCC(=O)O)C(=O)N[C@@H](Cc1c[nH]c2ccccc12)C(=O)N[C@@H](CC(C)C)C(=O)N[C@@H](CCCCN)C(=O)N[C@@H](CC(N)=O)C(=O)NCC(=O)NCC(=O)N1CCC[C@H]1C(=O)N[C@@H](CO)C(=O)N[C@@H](CO)C(=O)NCC(=O)N[C@@H](C)C(=O)N1CCC[C@H]1C(=O)N1CCC[C@H]1C(=O)N1CCC[C@H]1C(=O)N[C@@H](CO)C(N)=O)[C@@H](C)CC)C(=O)O` [SEQ ID NO: 12, Y-Aib-E-G-T-F-T-S-D-L-S-I-Q-K(γE-x53)-DKRAAQDFIEWLKNGGPSSGAPPPS-NH2], for which the “reduction of feed intake after 22 hours” value in the data set on female NMRI-mice stood at 71%. Besides, at human GIP receptor, the concentration for a half-maximal effect (EC50) came out at 8.9 pM. In data set [1], the “blood glucose compared to db/db control mice, 24 h profile” value is recorded as “significant decrease in blood glucose”. Moreover, the solubility at 2 h in “physchem” (pH 4.5) is more than 1000 µg/mL. Besides, the solubility at 2 h in the data set “physchem” (pH 7.4) was more than 1000 µg/mL. In the data set “in vivo”, the Cmax was determined as 3790 ng/mL and the half-life is 2.8 h.

As usually defined, the EC50 is the concentration needed to bring the measured effect to its halfway point. The solubility is the concentration that dissolves in the medium under given conditions. Low readings indicate little dissolved substance, high ones much dissolved substance. A word on the Cmax: it is the highest concentration seen after dosing. Broadly, the half-life is the time in which the quantity being followed falls by half. Read a low half-life as fast loss.
